Key:
CD34^+CD38^− cells [1] = assay: Expansion of CD34+CD38− cells from human cord blood-derived CD34+ cells (Example 2); type: cell-based; conditions: Homo sapiens, 168 h, 1 μg/mL compound, 50 ng/mL SCF, StemSpan SFEM, 7 days; based on number of CD34+CD38− cells in the absence of compound; read-out: Expansion efficiency
Method in brief: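 Human cord blood CD34+ cells (10000 cells/mL) were cultured 7 days at 37 °C, 5% CO2 in StemSpan SFEM with 50 ng/mL SCF and compound at 1 μg/mL final (0.1% DMSO). Viable cells were counted by trypan blue and the CD34+CD38− fraction by flow cytometry with PI exclusion; expansion is relative to no-compound culture, graded A (≥10), B (5–<10), C (3–<5).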

[2] = tested on: HPP-CFU colony forming cells; assay: Blood cell colony forming assay, HPP-CFC colonies (Example 5); type: cell-based, human; conditions: liquid cultures of Example 2 (1 μg/mL compound), 500 cells/dish, MethoCult GF H4435, 12 days, averaged
Procedure: The effects of Compounds No. 1, No. 2, and No. 4 of the present invention on hematopoietic progenitor cells were measured by blood cell colony forming assay. The liquid cell cultures obtained in Example 2 were poured into 3.5-cm Petri dishes with MethoCult GF H4435 culture medium (Stemcell Technologies) at 500 cells/dish and incubated in a CO2 incubator (5% CO2, 37° C.) for 12 days. The number of HPP-CFC colonies in each plate was counted under a microscope routinely. The assay was carried out at least in duplicate, and the numbers of HPP-CFC colonies were averaged.

CD34^+CD38^− cells [3] = assay: Expansion of CD34+CD38− cells using cord blood-derived CD34+CD38− cells (Example 6); type: cell-based, human; conditions: 1 μg/mL compound, CD34+CD38− starting cells, 50 ng/mL SCF, 7 days; based on number of CD34+CD38− cells in the presence of 10 ng/mL TPO
Procedure: The human cord blood-derived CD34^+CD38^− cells collected in Example 1 were plated on a 24-well plate (TPP) (from 3000 to 10000 cells/1 mL/well). As the culture medium, StemSpan SFEM (Stemcell Technologies) containing 50 ng/mL SCF (Peprotech) was used, and TPO (Peprotech) or Compound No. 1, No. 2, No. 4 or No. 6 in dimethyl sulfoxide in an amount of 0.1% (v/v) was added to a final concentration of […] or 1 μg/mL, respectively. After the cells were incubated in liquid culture at 37° C. for 7 days in a CO2 incubator (5% CO2), the number of CD34^+CD38^− cells was calculated in the same manner as in Example 2.
The expansion efficiencies in the presence of 1 μg/mL of the compounds based on the number of CD34^+CD38^− cells in the presence of 10 ng/mL TPO are shown in Table 5.

SRC = assay: Transplantation of cell culture into NOD/SCID mice, human CD45+ cells in bone marrow (Example 7); type: in vivo; conditions: cells cultured with 1 μg/mL compound vs 10 ng/mL TPO; three weeks after transplantation (FIG. 3)
Procedure: Cultured cells obtained in the same manner as in Example 2 in the presence of TPO (Peprotech) at a final concentration of 10 ng/mL or in the presence of Compound No. 1 or No. 4 at a final concentration of 1 μg/mL was transplanted into at least three 7- to 8-week-old NOD/SCID mice by tail vein injection at 4 to 5×10^4 cells/mouse in terms of the initial number of CD34^+ cells after a sublethal dose of irradiation (2.75 to 3 Gy). Three weeks after the transplantation, the mice were killed, and the bone marrow cells were collected from both thighbones. Subsequently, the bone marrow cells were stained with a human CD45 antibody (APC, Becton, Dickinson and Company), then washed with PBS(−) containing 2% (v/v) FBS and stained with propidium iodide (Sigma-Aldrich Japan) added to a final concentration of 5 μg/mL. The stained cells were analyzed with a flow cytometer JSAN (Bay Bioscience) to determined the proportion of human CD45^+ cells in the bone marrow cells.
The proportions of human CD45^+ cells from the cell cultures incubated in the presence of 1 μg/mL of Compound No. 1 or No. 4 based on the proportion of human CD45^+ cells from the cell culture incubated in the presence of 10 ng/mL TPO are shown in FIG. 3.

CD34^+NGFR^+ cells = assay: Transfection of cord blood CD34+ cells with NGFR gene, CD34+NGFR+ cell expansion (Example 10); set-up: species or system human; conditions: TPO 20 ng/mL or compound 0.3 μg/mL, 20 ng/mL SCF and Flt-3; based on number of CD34+NGFR+ cells in the absence of them
Procedure: The human cord blood-derived CD34^+ cells collected or purchased in Example 1 were plated on 3 cm-Petri dishes (TPP) (100000 cells/3 ml/dish). As the culture medium, StemSpan SFEM (Stemcell Technologies) containing 20 ng/ml SCF (Peprotech) and 20 ng/mL Flt-3 (Wako Pure Chemical Industries) was used, and TPO (Peprotech) or Compound No. 1 or No. 4 in dimethyl sulfoxide in an amount of 0.1% (v/v) was added to a final concentration of 20 ng/mL or 0.3 μg/mL, respectively. A negative control culture was incubated in the absence of TPO and the compounds.
After the cells were incubated in liquid culture at 37° C. for 24 hours in a CO2 incubator (5% CO2), 2 ml of the culture medium was sucked out, and 2 ml of the solution of the retrovirus for expression of NGFR prepared in Example 7 (containing 5 μg/mL protamine sulfate (Sigma-Aldrich Japan), 20 ng/ml SCF (Peprotech) and 20 ng/mL Flt-3 (Wako Pure Chemical Industries)) was added. TPO (Peprotech) or Compound No. 1 or No. 4 in dimethyl sulfoxide in an amount of 0.1% (v/v) was further added to a final concentration of […] or 0.3 μg/mL, respectively, and centrifugation at 2000 g was carried out at 32° C. for 30 minutes. Then, the cells were incubated in liquid culture under the same conditions as mentioned above for 24 hours, 2 ml of the culture medium was sucked out, 2 ml of the same solution of the retrovirus for expression of NGFR was added together with TPO or either compound, and centrifugation at 2000 g was carried out at 32° C. for 30 minutes. […] The cells were incubated in liquid culture under the same conditions as mentioned above for 24 hours, and the number of viable cells was counted by trypan blue assay (GIBCO).
The number of CD34^+ cells carrying NGFR introduced via the retrovirus vector (the number of CD34^+NGFR^+ cells) was calculated as follows. […] The stained cells were analyzed with JSAN (Bay Bioscience) to determined the proportion of CD34^+NGFR^+ cells, which was multiplied by the number of viable cells to calculate the number of CD34^+NGFR^+ cells. […]

| Compound | fold induction at 1 µg/mL (CD34^+CD38^− cells [1]) | Number of HPP-CFC colonies [2] | Expansion efficiency (CD34^+CD38^− cells [3]) | SRC expanding effect (proportion of human CD45+ cells in bone marrow) (SRC) | Expansion efficiency (CD34^+NGFR^+ cells) |
| --- | --- | --- | --- | --- | --- |
| C/C(=N\NC(=O)c1ccc(C(=O)NCc2cn(C)cn2)s1)c1csc(-c2ccc(Cl)c(Cl)c2)c1O [Compound No. 1] | ≥ 10 | 41 | 1.9 | excellent SRC expanding effect | 9.8 |
| C/C(=N\NC(=O)c1ccc(C(=O)NCc2ccc(C(N)=O)cc2)s1)c1csc(-c2ccc(Cl)c(Cl)c2)c1O [Compound No. 4] | ≥ 10 | 45 | 1.9 | excellent SRC expanding effect | 12.5 |
| thrombopoietin [TPO] |  |  |  |  | 7.7 |

From US9527828B2, “Method for expanding hematopoietic stem cells using heterocyclic compound” (Nissan Chemical Industries, Ltd., priority 2007, dated 2016)
